The source of these data is US8598123B2, “Peptide analogues” (Pfizer Inc., priority 2010, dated 2013).

The target of series [1] is T1, mu opioid receptor (Homo sapiens, UniProt P35372). Briefly: Beta-arrestin recruitment assay (DiscoveRx PathHunter). It counts as cell-based. On the set-up: host or cells: U2OS cells. Here is the method: The ability of agonists to cause recruitment of beta-arrestin to the mu opioid receptor was measured using DiscoveRx PathHunter technology. A pro-linked tagged mu-opioid receptor and an EA-tagged beta-arrestin were expressed in U20S cells and beta-arrestin recruitment measured following the methodology in McGuinness et al., 2009 (J Biomol Screen 14:49-58, Characterizing cannabinoid CB2 receptor ligands using DiscoverRx PathHunter beta-arrestin assay—McGuinness D., Malikzay A., Visconti R., Lin K., Bayne M., Monsma F., Lunn C A.)
Data appear in the Table below under “arrestin EC50” in nM.
Background: Recruitment of arrestin is a read-out of receptor activation apart from second messengers.
Target sequence in this assay (P35372 whole entry, species assumed): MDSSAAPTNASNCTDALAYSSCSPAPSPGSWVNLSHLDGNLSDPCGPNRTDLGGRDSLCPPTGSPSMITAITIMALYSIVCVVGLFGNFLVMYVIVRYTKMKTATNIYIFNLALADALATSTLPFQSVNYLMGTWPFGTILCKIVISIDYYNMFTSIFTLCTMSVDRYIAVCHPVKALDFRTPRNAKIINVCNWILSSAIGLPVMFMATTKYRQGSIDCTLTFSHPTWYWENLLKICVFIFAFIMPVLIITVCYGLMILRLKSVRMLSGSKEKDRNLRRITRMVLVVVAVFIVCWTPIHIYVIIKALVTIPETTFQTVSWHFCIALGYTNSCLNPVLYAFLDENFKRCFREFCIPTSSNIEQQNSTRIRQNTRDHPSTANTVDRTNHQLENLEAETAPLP
Target sequence in this assay (P32121 whole entry partner, species assumed): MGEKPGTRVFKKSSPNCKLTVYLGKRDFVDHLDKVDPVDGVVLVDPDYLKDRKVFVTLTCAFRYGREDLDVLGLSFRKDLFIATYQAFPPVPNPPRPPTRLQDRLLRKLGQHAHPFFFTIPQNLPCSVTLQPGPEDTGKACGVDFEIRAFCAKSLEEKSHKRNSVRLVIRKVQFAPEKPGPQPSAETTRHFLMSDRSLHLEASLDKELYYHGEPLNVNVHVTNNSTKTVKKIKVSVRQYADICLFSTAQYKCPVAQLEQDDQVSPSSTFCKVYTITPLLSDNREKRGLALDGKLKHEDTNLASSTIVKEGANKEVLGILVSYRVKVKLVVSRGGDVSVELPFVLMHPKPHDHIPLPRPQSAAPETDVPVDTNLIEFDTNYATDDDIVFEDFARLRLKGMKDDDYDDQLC

Series [2] in a line: physchem. As to conditions: pH 7.4.
From the text: LogD octanol (pH 7.4) is a measure of lipophilicity that accounts for both hydrophobic and hydrogen-bonding interactions of a given substrate. This assay is based on shake-flask methodology, performed in a fully automated manner in a 0.1M phosphate buffer pH7.4—octanol system.
After addition of the test substance in DMSO stock solution to the mixture and vigorous agitation followed by separation of the octanol and buffer layers by centrifugation, duplicate samples are removed from each layer and diluted prior to analysis by LC-MS/MS.
The duplicate log D values must be with 0.4 log units of each other and the positive controls must be within 0.2 log units of the known log D value.
A short description of series [3]: Human liver microsomal stability assay (HLM). In kind it is in vitro ADME. As to conditions: 37° C., 1 h time course, read-out: HLM clearance. An excerpt:
(§1) In vitro measurement of substrate metabolism can be determined using the microsomal cytochrome P450 mono-oxygenase system. This is a useful application in ranking clearance of a number of compounds by Phase I (including cytochrome P450) metabolism prior to in vivo assessment Measurement of intrinsic clearance using these methods also allows a comparison of species difference to be made to assist with translation of pharmacokinetic parameters from preclinical to clinical study.
(§2) Rat and Human Liver Microsomal Stability Assay (RLM and HLM Respectively)
(§3) Human and rat Liver microsomal assays were performed using pooled microsomes from the Pfizer Global Supply (BD Gentest™). Chemical reagents were purchased from commercial sources (Sigma-Aldrich) and drug entities synthesised at Pfizer Global Research. Incubation mixtures contained 50 mM phosphate buffer pH 7.4, 5 mM MgCl2, 5 mM isocitric acid and 1 unit/ml isocitric dehydrogenase. The microsomes were defrosted at room temperature and sufficient volumes added to give a final concentration of 0.5 nmol cytochrome P450/ml. Following the addition of 1 μM of substrate, the incubation was pre-incubated at 37° C. for 5 minutes. The reaction was then initiated by the addition of 1 mM NADP and incubation aliquots are taken over a 1 h time course. The reaction was subsequently stopped by addition of acetonitrile cooled on ice. The incubation mixture was then centrifuged and the supernatant removed for injection onto LC-MS/MS system. Providing that the substrate concentration is below the Km, the metabolism should be first order giving a log-linear plot of substrate disappearance over time. The gradient of this line is the first order rate constant (k) and this maybe converted to estimate a substrates intrinsic clearance when factoring in the protein concentration.
(§4) The intrinsic clearance in rat or human liver microsomes is calculated from:
(§5) Where, k=−slope of Ln concentration vs. time (min−1)

Series [4] in a line: Rat liver microsomal stability assay (RLM). It counts as in vitro ADME. As to conditions: 37° C., 1 h time course, read-out: RLMclearance.
From the text: as §1, §2, §3, §4, §5

Series [5] has as its target T1, mu opioid receptor. Briefly: Inhibition of forskolin stimulated cAMP production (alphascreen). In kind it is cell-based. On the set-up: expressed in transfected cells; host or cells: CHO cells. Here is the method:
Forskolin Stimulated cAMP
The ability of mu opioid receptor agonists to inhibit forskolin stimulated cAMP production was measured in CHO cells recombinantly expressing the mu opioid receptor, using alphascreen technology as described in Nickolls et al., 2005, with the additional inclusion of 50 uM forskolin in the assay buffer. (J Pharmacol Exp Ther 313; 1281-88, Functional selectivity of melanocortin 4 receptor peptide and non-peptide agonists: Evidence for ligand specific conformational states. Nickolls S A., Fleck B., Hoare S., Maki R.)
Data appear in the Table below under “mu-opioid IC50” in nM.
Target sequence in this assay (P35372 whole entry, species assumed): as the sequence (P35372 whole entry, species assumed) above

The conditions of series [6]: octanol / 0.1M phosphate buffer pH 7.4, positive controls; cited from earlier work.
[7] abbreviates: U20S cells expressing pro-linked tagged mu-opioid receptor and EA-tagged beta-arrestin, read-out: β-Arrestin EC50.
Setting [8] is: pH 7.4, human liver microsomes, 1 μM substrate.
The mark [9] stands for this setting: pH 7.4, rat liver microsomes, 1 μM substrate.
The mark [10] stands for this setting: CHO cells recombinantly expressing the mu opioid receptor, 50 uM forskolin, read-out: mu-opioid IC50.

Where two headings read alike, the source gives them in different places.

As usually defined, the EC50 is the midpoint of the concentration-response curve. As usually defined, the logD is lipophilicity at a set pH, counting ionised and neutral species. Low readings indicate a more hydrophilic compound, high ones a more lipophilic compound. `Cc1cc(O)cc(C)c1C[C@H](NC(=N)N)C(=O)N[C@H](C)C(=O)NCC(CNC(=N)N)Cc1ccccc1` (mixture of isomers) [Example 2]: the EC50 in series [1] (setting [7]) worked out at 34.8 nM. The compound further yielded a log distribution coefficient (logD) in series [2] of -0.7. Further, the microsomal CLint at 1 μM in series [3] (setting [8]) came to 15.9 µL/min/mg; in series [4] (setting [9]) it was 8.5 µL/min/mg.
By IC50 is commonly meant the concentration that gives 50% inhibition. As to `Cc1cc(O)cc(C)c1C[C@H](NC(=N)N)C(=O)N[C@H](C)C(=O)NC[C@H](Cc1ccccc1)NC(=N)N` [Example 1, N-[Amino(imino)methyl]-2,6-dimethyl-L-tyrosyl-N-[(2S)-2-{[amino(imino)methyl]amino}-3-phenylpropyl]-D-alaninamide], in series [1] (setting [7]), the EC50 is 41.4 nM. This compound also displayed a log distribution coefficient (logD) in series [2] of -0.2. Further, the microsomal CLint at 1 μM in series [3] (setting [8]) was determined as 10.6 µL/min/mg; in series [4] (setting [9]), 8.5 µL/min/mg. The IC50 in series [5] (setting [10]) amounted to 26 nM.
On to `Cc1cc(O)cc(C)c1C[C@H](N=C(N(C)C)N(C)C)C(=O)N[C@H](C)C(=O)NC[C@H](Cc1ccccc1)NC(=N)N` [Example 3], for which the response in series [1] was half-maximal at 10000 nM (EC50).
For `C[C@@H](NC(=O)[C@H](Cc1ccc(O)cc1)NC(=N)N)C(=O)NC[C@H](Cc1ccccc1)NC(=N)N` [Example 4], a half-maximal response in series [1] (EC50) required 5070 nM. In series [2], this compound registered a logD of -0.3. Besides, the microsomal CLint at 1 μM turned out to be 9.54 µL/min/mg in series [3] (setting [8]) and 13.4 µL/min/mg in series [4] (setting [9]).
Take `Cc1cc(O)cc(C)c1C[C@H](NC(=N)N)C(=O)N[C@H](C)C(=O)NC[C@H](Cc1ccccc1)NC(=O)CNC(=N)N` [Example 5]: the half-maximal effective concentration (EC50) in series [1] (setting [7]) was 47.6 nM.
On to `Cc1cc(O)cc(C)c1C[C@H](NC(=N)N)C(=O)N[C@H](C)C(=O)NC[C@H](Cc1ccccc1)NC(=O)CCNC(=N)N` [Example 6], for which, in series [1], the EC50 worked out at 162 nM. Moreover, the figures for the microsomal CLint at 1 μM in series [3] (setting [8]) and in series [4] (setting [9]) were 8 µL/min/mg and 8.5 µL/min/mg, respectively.
For `Cc1cc(O)cc(C)c1C[C@H](NC(=N)N)C(=O)N[C@H](CCCCCC(=O)O)C(=O)NCCCc1ccccc1` [Example 7], in series [1], it took 2460 nM to reach a half-maximal effect (EC50). In series [2], this compound registered a pH-dependent lipophilicity (logD) of 0.8. In addition, the microsomal CLint at 1 μM was 8.61 µL/min/mg in series [3] (setting [8]) and 9.48 µL/min/mg in series [4] (setting [9]). This compound also showed an IC50 in series [5] of 116 nM.
On to `CC(=O)N[C@H](CNC(=O)[C@@H](C)NC(=O)[C@H](Cc1c(C)cc(O)cc1C)NC(=N)N)Cc1ccccc1` [Example 8], for which the log distribution coefficient (logD) in series [2] was -0.35. For the same compound, the microsomal CLint at 1 μM was 15.4 µL/min/mg in series [3] (setting [8]) and 12.1 µL/min/mg in series [4] (setting [9]). Besides, in series [5] (setting [10]), the concentration for half-maximal inhibition (IC50) is 26.6 nM.
Take `Cc1cc(O)cc(C)c1C[C@H](NC(=N)N)C(=O)N[C@H](C)C(=O)NC[C@@H](N)Cc1ccccc1` [Example 9]: in series [1] (setting [7]), the 50% effective concentration (EC50) came out at 55.2 nM. Moreover, the figures for the microsomal CLint at 1 μM in series [3] (setting [8]) and in series [4] (setting [9]) were 13.6 µL/min/mg and 12.9 µL/min/mg, respectively. In addition, the 50% inhibitory concentration (IC50) in series [5] (setting [10]) came out at 15.3 nM.
For `Cc1cc(O)cc(C)c1C[C@H](NC(=N)N)C(=O)N[C@H](CC[S+](C)[O-])C(=O)NC[C@H](Cc1ccccc1)NC(=N)N` (stereo partly drawn) [Example 10, N-alpha-[amino(imino)methyl]-N-[(1R)-1-{[(2S)-2-{[amino(imino)methyl]amino}-3-phenypropyl]carbamoyl}-3-(methylsulfinyl)propyl]-2,6-dimethyl-L-tyrosinamide bis-trifluoroacetate], the EC50 in series [1] (setting [7]) came out at 17.6 nM.
Compound `Cc1cc(O)cc(C)c1C[C@H](NC(=N)N)C(=O)N[C@H](C)C(=O)NCCCc1ccccc1` [Example 11, (S)-2-Guanidino-3-(4-hydroxy-2,6-dimethyl-phenyl)-N-[(R)-1-(3-phenyl-propylcarbamoyl)-ethyl]-propionamide] returned a logD in series [2] (octanol / 0.1 M phosphate buffer) of -0.1. In addition, the microsomal CLint at 1 μM in series [3] (pooled human liver microsomes, pH 7.4, 1 μM substrate) is 74 µL/min/mg; in series [4] (pooled rat liver microsomes, pH 7.4, 1 μM substrate), 61 µL/min/mg. The compound further had an IC50 in series [5] of 8.59 nM.
Turning to `CN(C)CCC=C1c2ccccc2CCc2ccccc21` [amitriptyline], the “log D (known value of positive control)” value in series [6] was 2.7±0.2.
Regarding `Cc1ncc2n1-c1ccc(Cl)cc1C(c1ccccc1F)=NC2` [midazolam], in series [6], the “log D (known value of positive control)” value was 3.3±0.2.
